ChEMBL document CHEMBL5465560, “Selectivity Literature for EUbOPEN Chemogenomic Library” (2024)

Tests used:
[1] = biological target: T1, Serine/threonine-protein kinase TAO2 (Homo sapiens) (UniProt Q9UL54); test: Selectivity interaction (KinomeScan (DiscoverX)) EUB0000695a TAOK2; conditions: at 100 nM
T1 sequence (whole entry): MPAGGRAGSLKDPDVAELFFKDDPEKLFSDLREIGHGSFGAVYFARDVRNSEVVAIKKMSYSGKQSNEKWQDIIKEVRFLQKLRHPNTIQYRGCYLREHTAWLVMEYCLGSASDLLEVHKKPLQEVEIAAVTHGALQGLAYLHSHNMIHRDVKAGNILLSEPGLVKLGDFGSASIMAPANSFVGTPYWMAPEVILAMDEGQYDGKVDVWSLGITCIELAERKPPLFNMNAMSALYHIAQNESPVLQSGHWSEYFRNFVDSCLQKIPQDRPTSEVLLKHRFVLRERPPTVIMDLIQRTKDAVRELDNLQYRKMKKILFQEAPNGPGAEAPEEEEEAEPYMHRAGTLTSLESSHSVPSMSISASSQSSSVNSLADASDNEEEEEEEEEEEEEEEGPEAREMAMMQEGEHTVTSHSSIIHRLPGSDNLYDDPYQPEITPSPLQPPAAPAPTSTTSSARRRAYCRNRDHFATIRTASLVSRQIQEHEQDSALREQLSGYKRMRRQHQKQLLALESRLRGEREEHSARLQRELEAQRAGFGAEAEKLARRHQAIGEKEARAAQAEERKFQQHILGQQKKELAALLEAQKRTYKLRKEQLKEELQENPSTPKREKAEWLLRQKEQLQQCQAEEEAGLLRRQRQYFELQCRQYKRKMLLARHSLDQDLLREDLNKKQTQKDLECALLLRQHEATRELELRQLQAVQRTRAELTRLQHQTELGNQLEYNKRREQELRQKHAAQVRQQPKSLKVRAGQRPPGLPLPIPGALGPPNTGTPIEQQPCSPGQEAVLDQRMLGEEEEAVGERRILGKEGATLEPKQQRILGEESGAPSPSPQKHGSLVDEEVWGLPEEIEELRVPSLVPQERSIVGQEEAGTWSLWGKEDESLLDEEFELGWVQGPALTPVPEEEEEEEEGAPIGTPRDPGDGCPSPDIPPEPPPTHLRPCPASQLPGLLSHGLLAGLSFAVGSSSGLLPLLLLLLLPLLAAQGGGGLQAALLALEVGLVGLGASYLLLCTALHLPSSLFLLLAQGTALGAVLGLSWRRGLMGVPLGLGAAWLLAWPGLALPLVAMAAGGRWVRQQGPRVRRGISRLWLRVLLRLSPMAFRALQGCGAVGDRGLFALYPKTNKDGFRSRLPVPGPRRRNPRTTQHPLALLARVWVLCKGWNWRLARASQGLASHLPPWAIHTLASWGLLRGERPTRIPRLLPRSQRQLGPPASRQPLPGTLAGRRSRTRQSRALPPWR

[2] = biological target: STE20-like serine/threonine-protein kinase (Homo sapiens, UniProt Q9H2G2); conditions: at 10 µM
[3] = biological target: Phosphatidylinositol 4,5-bisphosphate 3-kinase catalytic subunit beta isoform (Homo sapiens) (UniProt P42338); test: Selectivity interaction (KinomeScan (DiscoverX)) EUB0001049a PIK3CB; conditions: at 1 µM
[4] = biological target: T2, Ephrin type-B receptor 1 (Homo sapiens) (UniProt P54762); test: Selectivity interaction (KinomeScan (DiscoverX)) EUB0001619a EPHB1; conditions: at 1 µM
T2 sequence (whole entry): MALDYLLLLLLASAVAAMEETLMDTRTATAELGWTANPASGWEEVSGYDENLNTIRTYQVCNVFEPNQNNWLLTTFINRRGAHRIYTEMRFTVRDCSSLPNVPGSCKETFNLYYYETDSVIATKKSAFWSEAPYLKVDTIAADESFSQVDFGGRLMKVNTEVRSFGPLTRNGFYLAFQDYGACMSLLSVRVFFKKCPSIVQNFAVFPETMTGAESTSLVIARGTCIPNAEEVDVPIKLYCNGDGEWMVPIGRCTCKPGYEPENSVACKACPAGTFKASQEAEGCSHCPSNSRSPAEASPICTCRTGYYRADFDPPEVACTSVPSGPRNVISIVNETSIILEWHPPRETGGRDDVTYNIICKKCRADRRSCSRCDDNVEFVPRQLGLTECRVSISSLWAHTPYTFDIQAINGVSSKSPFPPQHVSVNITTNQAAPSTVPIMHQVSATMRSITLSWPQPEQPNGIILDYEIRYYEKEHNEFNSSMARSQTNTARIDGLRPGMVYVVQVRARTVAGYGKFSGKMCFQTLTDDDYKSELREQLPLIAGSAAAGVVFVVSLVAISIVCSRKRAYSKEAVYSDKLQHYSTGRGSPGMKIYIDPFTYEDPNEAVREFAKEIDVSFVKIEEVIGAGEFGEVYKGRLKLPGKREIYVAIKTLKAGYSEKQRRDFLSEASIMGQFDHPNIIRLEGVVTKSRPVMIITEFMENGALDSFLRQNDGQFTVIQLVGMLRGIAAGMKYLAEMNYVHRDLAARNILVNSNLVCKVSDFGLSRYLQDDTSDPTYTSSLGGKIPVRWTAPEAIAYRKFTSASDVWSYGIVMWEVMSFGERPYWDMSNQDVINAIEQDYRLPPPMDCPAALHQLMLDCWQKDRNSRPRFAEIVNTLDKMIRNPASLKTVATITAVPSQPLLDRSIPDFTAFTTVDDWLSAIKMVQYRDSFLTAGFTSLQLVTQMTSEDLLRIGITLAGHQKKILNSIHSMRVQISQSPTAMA

[5] = biological target: Tyrosine-protein kinase Fes/Fps (Homo sapiens) (UniProt P07332); test: Selectivity interaction (ActivX KiNativ screen (ex vivo kinase selectivity in human PBMCs)) EUB0001619a FES; assay type: cell-based; conditions: PBMC, at 1 µM
[6] = biological target: Dual specificity protein kinase CLK3 (Homo sapiens, UniProt P49761); test: Selectivity interaction (Kinase panel (Invitrogen)) EUB0000639a CLK3; conditions: at 200 nM
[7] = biological target: Serine/threonine-protein kinase WNK2 (Homo sapiens) (UniProt Q9Y3S1); test: Selectivity interaction (Kinase panel (Invitrogen)) EUB0000639a WNK2; conditions: at 200 nM
Serine/threonine-protein kinase WNK2 (Homo sapiens), sequence (Q9Y3S1 whole entry): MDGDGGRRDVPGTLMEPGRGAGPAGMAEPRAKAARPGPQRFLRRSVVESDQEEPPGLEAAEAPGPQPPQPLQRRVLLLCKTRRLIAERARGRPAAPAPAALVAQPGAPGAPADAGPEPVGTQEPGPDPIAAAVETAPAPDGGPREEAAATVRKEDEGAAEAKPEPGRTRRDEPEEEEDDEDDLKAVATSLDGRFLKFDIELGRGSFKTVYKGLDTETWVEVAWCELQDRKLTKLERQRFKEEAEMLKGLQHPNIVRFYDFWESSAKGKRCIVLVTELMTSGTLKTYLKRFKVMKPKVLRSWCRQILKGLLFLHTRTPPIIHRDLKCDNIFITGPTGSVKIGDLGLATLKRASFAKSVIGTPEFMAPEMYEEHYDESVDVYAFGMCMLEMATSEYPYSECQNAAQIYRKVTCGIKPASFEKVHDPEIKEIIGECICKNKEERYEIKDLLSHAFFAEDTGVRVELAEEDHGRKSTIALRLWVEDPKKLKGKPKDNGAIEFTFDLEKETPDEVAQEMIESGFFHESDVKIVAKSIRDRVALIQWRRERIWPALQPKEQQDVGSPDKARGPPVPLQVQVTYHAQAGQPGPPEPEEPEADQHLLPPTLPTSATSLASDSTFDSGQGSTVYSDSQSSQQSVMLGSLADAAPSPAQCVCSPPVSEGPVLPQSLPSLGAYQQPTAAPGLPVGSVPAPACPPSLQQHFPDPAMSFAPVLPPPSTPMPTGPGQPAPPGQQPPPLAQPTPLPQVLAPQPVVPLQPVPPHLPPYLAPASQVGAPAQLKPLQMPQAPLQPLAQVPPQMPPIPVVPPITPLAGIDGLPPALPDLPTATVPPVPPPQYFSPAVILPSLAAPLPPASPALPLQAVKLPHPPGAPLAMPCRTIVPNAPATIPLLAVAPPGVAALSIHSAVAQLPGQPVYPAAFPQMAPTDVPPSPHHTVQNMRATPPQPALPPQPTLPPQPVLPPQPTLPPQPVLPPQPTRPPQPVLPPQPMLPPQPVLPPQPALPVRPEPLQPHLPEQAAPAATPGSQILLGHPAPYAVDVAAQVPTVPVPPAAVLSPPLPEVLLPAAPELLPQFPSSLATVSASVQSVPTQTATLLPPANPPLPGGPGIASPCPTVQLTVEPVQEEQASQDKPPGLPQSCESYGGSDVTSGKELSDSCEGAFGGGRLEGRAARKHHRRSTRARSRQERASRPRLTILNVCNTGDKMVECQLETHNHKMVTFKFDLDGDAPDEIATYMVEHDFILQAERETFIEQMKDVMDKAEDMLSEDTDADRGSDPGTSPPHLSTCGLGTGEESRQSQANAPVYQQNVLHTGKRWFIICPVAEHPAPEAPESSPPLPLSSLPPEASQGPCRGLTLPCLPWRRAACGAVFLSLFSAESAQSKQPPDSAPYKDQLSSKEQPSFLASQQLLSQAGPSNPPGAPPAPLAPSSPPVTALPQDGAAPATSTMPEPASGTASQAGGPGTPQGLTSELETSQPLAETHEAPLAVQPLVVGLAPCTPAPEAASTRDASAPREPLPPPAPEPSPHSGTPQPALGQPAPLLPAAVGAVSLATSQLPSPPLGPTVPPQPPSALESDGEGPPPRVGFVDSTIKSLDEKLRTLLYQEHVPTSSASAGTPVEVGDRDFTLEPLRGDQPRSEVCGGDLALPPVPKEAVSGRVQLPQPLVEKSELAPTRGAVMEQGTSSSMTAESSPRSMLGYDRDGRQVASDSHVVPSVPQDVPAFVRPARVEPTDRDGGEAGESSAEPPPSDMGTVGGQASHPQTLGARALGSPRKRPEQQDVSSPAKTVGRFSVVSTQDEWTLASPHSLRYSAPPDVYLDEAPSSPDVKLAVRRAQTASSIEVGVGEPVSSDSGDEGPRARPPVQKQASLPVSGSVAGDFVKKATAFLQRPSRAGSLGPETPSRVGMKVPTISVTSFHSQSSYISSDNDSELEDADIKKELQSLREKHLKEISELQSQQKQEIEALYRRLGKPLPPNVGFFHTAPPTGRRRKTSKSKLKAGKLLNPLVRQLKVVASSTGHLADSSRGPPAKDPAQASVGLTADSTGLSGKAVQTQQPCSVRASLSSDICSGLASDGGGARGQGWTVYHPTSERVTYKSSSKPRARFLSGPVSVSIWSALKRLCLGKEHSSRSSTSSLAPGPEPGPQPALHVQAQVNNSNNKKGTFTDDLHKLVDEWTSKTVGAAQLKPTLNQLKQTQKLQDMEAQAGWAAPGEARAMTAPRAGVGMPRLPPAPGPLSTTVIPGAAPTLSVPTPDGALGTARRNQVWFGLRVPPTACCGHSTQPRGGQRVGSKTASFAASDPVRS

Tyrosine-protein kinase Fes/Fps (Homo sapiens), sequence (P07332 whole entry): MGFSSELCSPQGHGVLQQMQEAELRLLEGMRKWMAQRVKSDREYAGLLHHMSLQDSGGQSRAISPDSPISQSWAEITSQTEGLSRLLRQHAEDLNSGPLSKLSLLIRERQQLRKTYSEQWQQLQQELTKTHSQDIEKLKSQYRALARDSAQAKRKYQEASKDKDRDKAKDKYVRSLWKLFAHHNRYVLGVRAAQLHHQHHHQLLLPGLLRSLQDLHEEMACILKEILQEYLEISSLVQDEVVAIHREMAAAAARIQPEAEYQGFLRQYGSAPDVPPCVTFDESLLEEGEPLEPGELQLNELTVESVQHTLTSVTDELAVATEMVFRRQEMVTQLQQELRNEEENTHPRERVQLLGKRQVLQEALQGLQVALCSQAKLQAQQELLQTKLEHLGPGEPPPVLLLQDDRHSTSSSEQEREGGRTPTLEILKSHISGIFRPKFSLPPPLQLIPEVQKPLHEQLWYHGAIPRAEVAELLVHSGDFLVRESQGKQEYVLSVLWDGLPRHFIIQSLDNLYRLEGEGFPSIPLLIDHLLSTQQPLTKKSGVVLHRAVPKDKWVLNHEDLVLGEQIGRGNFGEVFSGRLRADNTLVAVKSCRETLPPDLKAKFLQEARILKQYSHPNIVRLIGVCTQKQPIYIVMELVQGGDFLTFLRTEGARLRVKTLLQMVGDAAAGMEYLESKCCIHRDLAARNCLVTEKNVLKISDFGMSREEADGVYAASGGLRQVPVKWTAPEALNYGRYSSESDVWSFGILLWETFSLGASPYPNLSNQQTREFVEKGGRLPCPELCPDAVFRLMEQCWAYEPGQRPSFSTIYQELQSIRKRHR
Phosphatidylinositol 4,5-bisphosphate 3-kinase catalytic subunit beta isoform (Homo sapiens), sequence (P42338 whole entry, looked up, canonical isoform): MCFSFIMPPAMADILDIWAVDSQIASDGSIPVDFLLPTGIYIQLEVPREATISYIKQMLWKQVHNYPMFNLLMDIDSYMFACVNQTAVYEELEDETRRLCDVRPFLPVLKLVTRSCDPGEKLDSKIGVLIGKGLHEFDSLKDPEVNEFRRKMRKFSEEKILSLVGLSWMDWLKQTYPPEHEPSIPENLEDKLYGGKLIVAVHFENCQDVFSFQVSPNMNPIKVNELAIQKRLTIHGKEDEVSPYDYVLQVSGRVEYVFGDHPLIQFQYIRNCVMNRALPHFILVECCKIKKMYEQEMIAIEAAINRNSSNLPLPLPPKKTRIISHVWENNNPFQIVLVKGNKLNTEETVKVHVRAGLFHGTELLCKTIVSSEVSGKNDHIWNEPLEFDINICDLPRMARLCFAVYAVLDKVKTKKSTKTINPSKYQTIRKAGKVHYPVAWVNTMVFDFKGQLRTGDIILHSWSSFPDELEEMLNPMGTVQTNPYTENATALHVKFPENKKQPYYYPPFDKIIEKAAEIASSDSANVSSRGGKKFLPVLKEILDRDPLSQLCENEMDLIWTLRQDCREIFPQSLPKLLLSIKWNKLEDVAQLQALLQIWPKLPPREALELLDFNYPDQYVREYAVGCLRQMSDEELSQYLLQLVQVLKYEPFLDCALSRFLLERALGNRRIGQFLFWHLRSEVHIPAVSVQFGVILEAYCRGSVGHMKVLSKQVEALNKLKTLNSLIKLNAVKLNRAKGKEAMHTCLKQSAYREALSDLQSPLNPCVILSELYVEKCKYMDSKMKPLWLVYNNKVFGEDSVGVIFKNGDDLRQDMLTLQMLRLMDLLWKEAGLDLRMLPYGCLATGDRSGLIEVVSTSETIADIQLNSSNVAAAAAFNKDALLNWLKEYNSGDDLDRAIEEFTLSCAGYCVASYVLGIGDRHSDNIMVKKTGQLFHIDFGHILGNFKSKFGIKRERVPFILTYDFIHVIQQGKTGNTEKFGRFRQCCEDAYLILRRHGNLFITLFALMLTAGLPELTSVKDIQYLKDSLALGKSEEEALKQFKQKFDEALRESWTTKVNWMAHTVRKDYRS
Dual specificity protein kinase CLK3, sequence (P49761 whole entry, looked up): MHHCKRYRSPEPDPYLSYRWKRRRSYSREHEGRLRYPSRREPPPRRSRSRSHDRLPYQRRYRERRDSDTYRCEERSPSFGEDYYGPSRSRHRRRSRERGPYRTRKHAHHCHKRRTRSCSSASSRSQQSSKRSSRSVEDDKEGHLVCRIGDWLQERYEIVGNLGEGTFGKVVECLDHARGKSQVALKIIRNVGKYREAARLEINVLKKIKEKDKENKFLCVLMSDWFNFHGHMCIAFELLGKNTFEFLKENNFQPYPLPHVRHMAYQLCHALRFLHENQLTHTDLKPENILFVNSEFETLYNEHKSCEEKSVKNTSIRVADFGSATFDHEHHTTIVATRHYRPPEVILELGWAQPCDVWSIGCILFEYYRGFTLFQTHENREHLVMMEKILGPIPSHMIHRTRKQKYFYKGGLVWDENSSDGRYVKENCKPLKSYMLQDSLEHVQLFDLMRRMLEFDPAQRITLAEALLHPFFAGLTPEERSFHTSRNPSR

Work on Cc1cc(F)c(C(=O)Nc2cccc(-c3nncn3C(C)C)n2)cc1-n1cnc(C2CC2)c1 yielded a % of control [1] of 100%.

Cc1cc([C@@H](C)Nc2ccccc2C(=O)O)c2nc(N3CCOCC3)cc(=O)n2c1 [AZD-6482] showed a % of control [2] of 100%.

COc1cc(Nc2nc(C)cc(-c3cnn4nc(OC)ccc34)n2)cc(C(F)(F)F)c1 showed a % of control [3] of 55%.

Work on N#Cc1cccc(-c2c[nH]c3ncnc(N4CCOCC4)c23)c1 yielded a % of control [4] of 100% and a % of inhibition [5] of 2%.

Compound CC[C@@H]1[C@H](F)C(=O)N[C@@H]1COc1nccc2cc(C(N)=O)c(OC)cc12 [ZIMLOVISERTIB] has a % of inhibition [6] of 8.76% and a % of inhibition [7] of 3.33%.
